According to patent publication EP1144365B1 (TANABE SEIYAKU CO., LTD., priority 1998, dated 2000):

Experiments:
α4β1 integrin = biological target: T1, α4β1 integrin (Homo sapiens, UniProt P05556+P13612); experiment: Jurkat-Endothelial Cell Adhesion Assay (Jurkat EC); type: cell-based; conditions: Jurkat cell adhesion to IL-1 stimulated endothelial cell monolayers
T1 construct: a T-cell line, Jurkat, known to express the α4β1 integrin; host or cells: Jurkat T-cell line
Experimental: The following assay established the activity of the present compounds in inhibiting β1-mediated cell adhesion in a representative in vitro system. This assay measures the adhesive interactions of a T-cell line, Jurkat, known to express the α4β1 integrin, to endothelial monolayers in the presence of test compounds. The test compounds were added in increasing concentrations to T-cells and then the T-cell compound mixture was added to IL-1 stimulated endothelial cell monolayers. The plates were incubated, washed and the percentage of attached cells was quantitated.
Human umbilical vein endothelial cells were purchased from Clonetics (San Diego, CA.) at passage number 2. The cells were grown on 0.5% porcine skin gelatin pre-coated flasks (Sigma, St. Louis MO.) in EGM-UV media (Clonetics, San Diego, CA) supplemented with 10% fetal bovine serum. Cells are refed every 2-3 days reaching confluence by day 4 to 6. […] The endothelial cells are not used following passage 6.
The T-cell line Jurkat was obtained from American Type Tissue Culture Collection (Rockville, MD) and the cells were cultured in RPMI containing 10 % fetal calf serum. The cells were washed twice in Hank's Balanced Salt Solution (HBSS) and resuspended in Dulbecco's Minimal Eagle's Media (DMEM) containing 2.5 mg/ml Human Serum Albumin (HSA). Jurkat cells (1x10^6 cells/ml) were stained with 10 ng/ml BCECF-AM (Molecular Probes, Eugene, OR)) in HBSS without phenol red. The cells were loaded with BCECF for 60 minutes in the dark at 37°C, washed 2 times, and resuspended in DMEM-HSA solution.
Confluent endothelial monolayers, grown in 96-well tissue culture plates, were stimulated for 4 hr. at 37 °C with 0.1 ng/ml (∼50 U/ml) recombinant IL-1 (Amgen, Thousand Oaks, CA). Following this incubation, the monolayers were washed twice with HBSS and 0.1 ml of DMEM-HSA solution was added. Jurkat cells (5 x 10^5 cells) were combined with the appropriate concentration of the test compound and 0.1 ml of the Jurkat cell-compound mixture was added to the endothelial cell monolayers. Generally, 100, 20, 5 and 1.25 µM compound concentrations were tested. […] Following this incubation, the monolayers were washed twice with PBS containing 1 mM calcium chloride and 1 mM magnesium chloride' and the plates were read using a Millipore Cytofluor 2300 (Marlboro, MA.). Fluorescence in each well was measured as Arbitrary Fluorescence Units and percent adhesion in the absence of compound was adjusted to 100% and the % adhesion in the presence of compound was calculated. Monolayers were also fixed in 3% paraformaldehyde and evaluated microscopically to verify the adhesion. This procedure is a modification of a previously published method (Cardarelli et al., J. Biol. Chem. 269:18668-18673 (1994)).

α4β1 = biological target: T2, α4β1 (Homo sapiens, UniProt P05556+P13612); experiment: Jurkat-CS-1 assay; type: cell-based; conditions: Jurkat cell adhesion to immobilized CS-1 derived peptide
T2 construct: 100 µl of Jurkat cells (2.5 x 10^6 cells/ml) in DMEM plus BSA; host or cells: Jurkat T-cell line
T2 sequence (P13612 34-1032): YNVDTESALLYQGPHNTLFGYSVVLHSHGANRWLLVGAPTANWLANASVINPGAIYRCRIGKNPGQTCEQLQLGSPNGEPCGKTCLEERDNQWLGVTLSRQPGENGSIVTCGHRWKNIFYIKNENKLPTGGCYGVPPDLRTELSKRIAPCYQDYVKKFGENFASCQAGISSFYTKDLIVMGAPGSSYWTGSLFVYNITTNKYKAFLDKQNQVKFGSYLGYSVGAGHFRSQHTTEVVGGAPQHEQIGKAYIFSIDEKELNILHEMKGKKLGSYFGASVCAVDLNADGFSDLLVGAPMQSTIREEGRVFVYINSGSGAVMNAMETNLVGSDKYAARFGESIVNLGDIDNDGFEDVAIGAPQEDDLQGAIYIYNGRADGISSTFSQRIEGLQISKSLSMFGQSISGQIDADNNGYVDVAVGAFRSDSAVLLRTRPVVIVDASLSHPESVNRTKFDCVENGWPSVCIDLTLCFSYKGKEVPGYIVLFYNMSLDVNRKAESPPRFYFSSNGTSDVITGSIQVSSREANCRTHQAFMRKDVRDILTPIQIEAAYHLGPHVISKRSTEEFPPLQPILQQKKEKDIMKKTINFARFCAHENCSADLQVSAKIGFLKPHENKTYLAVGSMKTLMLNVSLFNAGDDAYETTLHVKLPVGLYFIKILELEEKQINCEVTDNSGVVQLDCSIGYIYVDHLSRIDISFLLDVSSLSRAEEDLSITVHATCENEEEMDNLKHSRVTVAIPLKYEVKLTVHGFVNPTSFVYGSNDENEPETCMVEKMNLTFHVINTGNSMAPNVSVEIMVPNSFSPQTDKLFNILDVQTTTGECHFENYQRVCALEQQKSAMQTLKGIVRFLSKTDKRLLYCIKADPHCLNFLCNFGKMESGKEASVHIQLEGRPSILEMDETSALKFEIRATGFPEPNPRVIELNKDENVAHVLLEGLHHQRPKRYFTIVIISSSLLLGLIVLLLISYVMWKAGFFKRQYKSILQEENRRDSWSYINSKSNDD
T2 sequence (P05556 21-798): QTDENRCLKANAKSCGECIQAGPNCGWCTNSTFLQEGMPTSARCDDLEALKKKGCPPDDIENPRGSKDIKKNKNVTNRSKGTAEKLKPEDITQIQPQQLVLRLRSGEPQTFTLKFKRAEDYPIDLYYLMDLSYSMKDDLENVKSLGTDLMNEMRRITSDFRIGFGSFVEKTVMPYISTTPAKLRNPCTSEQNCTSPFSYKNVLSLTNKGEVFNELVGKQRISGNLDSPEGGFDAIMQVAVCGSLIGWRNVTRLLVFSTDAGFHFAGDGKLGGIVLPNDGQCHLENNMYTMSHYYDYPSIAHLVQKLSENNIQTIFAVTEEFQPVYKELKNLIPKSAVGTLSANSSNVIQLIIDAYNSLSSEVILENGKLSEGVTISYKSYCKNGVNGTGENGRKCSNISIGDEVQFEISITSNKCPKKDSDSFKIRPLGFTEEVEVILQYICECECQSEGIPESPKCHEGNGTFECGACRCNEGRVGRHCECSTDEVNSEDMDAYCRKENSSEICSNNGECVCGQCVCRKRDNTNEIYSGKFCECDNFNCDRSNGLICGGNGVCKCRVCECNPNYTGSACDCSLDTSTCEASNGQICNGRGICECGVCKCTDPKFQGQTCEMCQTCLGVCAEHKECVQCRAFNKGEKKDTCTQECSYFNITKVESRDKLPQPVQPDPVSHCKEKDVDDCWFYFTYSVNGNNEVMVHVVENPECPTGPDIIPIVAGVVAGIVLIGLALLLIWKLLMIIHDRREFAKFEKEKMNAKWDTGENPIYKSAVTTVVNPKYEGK
Experimental: The CS-1 derived peptide, CLHPGEILDVPST, and the scrambled control peptide, CLHGPIELVSDPT, were synthesized on a Beckman 990 synthesizer using t-Boc methodology. The peptides were immobilized onto microtiter plates using the heterobifunctional crosslinker 3-(2-pyridyldithio)propionic acid N-hydroxysuccinimide ester (SPDP) as reported by Pierschbacher et al., Proc. Natl. Acad. USA, 80:1224-1227 (1983). Microtiter plates were coated with 20 µg/ml HSA for 2 hr. at room temperature, washed once with PBS and derivatized with 10 µg/ml SPDP for 1 hr. After washing, 100 µl of a 100 µg/ml cysteine containing peptide solution which had been recently dissolved was added to the wells and allowed to crosslink to the plates overnight at 4 °C. Unbound peptide was removed from plates by washing with PBS. To block non-reacted sites, the plates are coated with 100 µl of a 2.5 mg/ml BSA solution in PBS for 1 hr. at 37 °C. 100 µl of Jurkat cells (2.5 x 10^6 cells/ml) in DMEM plus BSA (2.5 mg/ml) was mixed with an appropriate concentration of the compound to be tested and the mixture was added to peptide coated dishes and incubated for 1 hr. at 37 °C. Generally 100, 20, 5 and 1.25 µM concentrations of the compound were tested.
Following this incubation the plates were washed once with PBS and the attached cells were fixed with 3% paraformaldehyde in PBS and stained with 0.5% toluidine blue in 3.7% formaldehyde. The cells were stained overnight at room temperature and the optical density at 590 nm of toluidine blue stained cells was determined using a vertical pathway spectrophotometer to quantitate attachment (VMAX Kinetic Microplate Reader, Molecular Devices, Menlo Park, CA). This procedure is a modification of a previously published method (Cardarelli et al, J. Biol. Chem., 269:18668-18673 (1994) and Cardarelli et al, Proc. Natl. Acad. Sci. USA, 83:2647-2651 (1986)).

T1 sequence (P13612 34-1032): as the sequence (P13612 34-1032) above
T1 sequence (P05556 21-798): as the sequence (P05556 21-798) above

| SMILES | IC50 (α4β1 integrin) [nM] | IC50 (α4β1) [nM] |
| --- | --- | --- |
| O=C(O)/C=C/C(=O)Nc1cccc(C(=O)N[C@@H](Cc2ccc(NC(=O)c3c(Cl)cccc3Cl)cc2)C(=O)O)c1 [Example 37] | 5000 to 10000 | 500 to 1000 |
| O=C(O)c1cncc(C(=O)Nc2cccc(C(=O)N[C@@H](Cc3ccc(NC(=O)c4c(Cl)cccc4Cl)cc3)C(=O)O)c2)c1 [Example 44] | 5000 to 10000 | 80 to 500 |
| O=C(O)CCC(=O)NC1(C(=O)N[C@@H](Cc2ccc(NC(=O)c3c(Cl)cccc3Cl)cc2)C(=O)O)CCCCC1 [Example 46] | 800 to 5000 | 80 to 500 |
| O=C(O)CC1(CC(=O)NC2(C(=O)N[C@@H](Cc3ccc(NC(=O)c4c(Cl)cccc4Cl)cc3)C(=O)O)CCCCC2)CCCC1 [Example 47] | 5000 to 10000 | 80 to 500 |
| CC(C)(CC(=O)O)CC(=O)NC1(C(=O)N[C@@H](Cc2ccc(NC(=O)c3c(Cl)cccc3Cl)cc2)C(=O)O)CCCCC1 [Example 48] | 800 to 5000 | 80 to 500 |
| O=C(O)/C=C/C(=O)NC1(C(=O)N[C@@H](Cc2ccc(NC(=O)c3c(Cl)cccc3Cl)cc2)C(=O)O)CCCCC1 [Example 50] | 5000 to 10000 | 500 to 1000 |
| COCCC(=O)NC1(C(=O)N[C@@H](Cc2ccc(NC(=O)c3c(Cl)cccc3Cl)cc2)C(=O)O)CCCCC1 [Example 51] | 800 to 5000 | ≤ 80 |
| O=C(Nc1ccc(C[C@H](NC(=O)C2(NC(=O)C3CCCC(C(=O)O)C3)CCCCC2)C(=O)O)cc1)c1c(Cl)cccc1Cl (stereo partly drawn) [Example 52] | 800 to 5000 | ≤ 80 |
| COc1ccc(C(=O)NC2(C(=O)N[C@@H](Cc3ccc(NC(=O)c4c(Cl)cccc4Cl)cc3)C(=O)O)CCCCC2)cc1OC [Example 55] | 800 to 5000 | 80 to 500 |
| O=C(O)c1ccccc1C(=O)NC1(C(=O)N[C@@H](Cc2ccc(NC(=O)c3c(Cl)cccc3Cl)cc2)C(=O)O)CCCCC1 [Example 56] | 800 to 5000 | 80 to 500 |
| O=C(O)c1cncc(C(=O)NC2(C(=O)N[C@@H](Cc3ccc(NC(=O)c4c(Cl)cccc4Cl)cc3)C(=O)O)CCCCC2)c1 [Example 59] | 800 to 5000 | 80 to 500 |
| O=C(O)c1cccc(C(=O)NC2(C(=O)N[C@@H](Cc3ccc(NC(=O)c4c(Cl)cccc4Cl)cc3)C(=O)O)CCCCC2)n1 [Example 62] | 800 to 5000 | 80 to 500 |
| O=C(NC1(C(=O)N[C@@H](Cc2ccc(NC(=O)c3c(Cl)cccc3Cl)cc2)C(=O)O)CCCCC1)c1cc(O)c2ccccc2n1 [Example 64] | 800 to 5000 | 80 to 500 |
| O=C(NC1(C(=O)N[C@@H](Cc2ccc(NC(=O)c3c(Cl)cccc3Cl)cc2)C(=O)O)CCCCC1)c1cc(C(=O)O)[nH]n1 [Example 65] | 800 to 5000 | 80 to 500 |
| O=C(NC1(C(=O)N[C@@H](Cc2ccc(NC(=O)c3c(Cl)cccc3Cl)cc2)C(=O)O)CC2CCC1C2)c1cccnc1 (stereo partly drawn) [Example 70] | 800 to 5000 | 80 to 500 |
| O=C(O)c1cccc(C(=O)NC2(C(=O)N[C@@H](Cc3ccc(NC(=O)c4c(Cl)cccc4Cl)cc3)C(=O)O)CC3CCC2C3)n1 (stereo partly drawn) [Example 71] | 800 to 5000 | 80 to 500 |
| O=C(NC1(C(=O)N[C@@H](Cc2ccc(NC(=O)c3c(Cl)cccc3Cl)cc2)C(=O)O)CC2CCC1C2)c1cc(O)c2ccccc2n1 (stereo partly drawn) [Example 73] | 800 to 5000 | 500 to 1000 |
| O=C(NC1(C(=O)N[C@@H](Cc2ccc(NC(=O)c3c(Cl)cccc3Cl)cc2)C(=O)O)CC2CCC1C2)c1cc(C(=O)O)[nH]n1 (stereo partly drawn) [Example 74] | 800 to 5000 | 80 to 500 |
| O=C(NC1(C(=O)N[C@@H](Cc2ccc(NC(=O)c3c(Cl)cccc3Cl)cc2)C(=O)O)CC2CCC1C2)c1ccc([N+](=O)[O-])o1 (stereo partly drawn) [Example 76] | 800 to 5000 | 80 to 500 |
| O=C(NC1CCCCC1C(=O)NC(Cc1ccc(NC(=O)c2c(Cl)cccc2Cl)cc1)C(=O)O)c1cccnc1 (stereo not drawn) [Example 79] | 800 to 5000 | 80 to 500 |

Other lines, results leading:

| IC50 (α4β1 integrin) [nM] | IC50 (α4β1) [nM] | SMILES |
| --- | --- | --- |
| ≤ 800 | 500 to 1000 | CC(C)(Sc1ccccc1C(=O)O)C(=O)N[C@@H](Cc1ccc(NC(=O)c2c(Cl)cccc2Cl)cc1)C(=O)O [Example 25] |
| 800 to 5000 | 500 to 1000 | O=C(O)/C=C\C(=O)Nc1cccc(C(=O)N[C@@H](Cc2ccc(NC(=O)c3c(Cl)cccc3Cl)cc2)C(=O)O)c1 [Example 36] |
| 800 to 5000 | 500 to 1000 | O=C(N[C@@H](Cc1ccc(NC(=O)c2c(Cl)cccc2Cl)cc1)C(=O)O)c1cccc(NC(=O)C2CCCC(C(=O)O)C2)c1 (stereo partly drawn) [Example 38] |
| ≤ 800 | 80 to 500 | O=C(O)/C=C\C(=O)NC1(C(=O)N[C@@H](Cc2ccc(NC(=O)c3c(Cl)cccc3Cl)cc2)C(=O)O)CCCCC1 [Example 49] |
| ≤ 800 | ≤ 80 | CC(=O)CCC(=O)NC1(C(=O)N[C@@H](Cc2ccc(NC(=O)c3c(Cl)cccc3Cl)cc2)C(=O)O)CCCCC1 [Example 53] |
| ≤ 800 | 80 to 500 | O=C(O)c1cccc(C(=O)NC2(C(=O)N[C@@H](Cc3ccc(NC(=O)c4c(Cl)cccc4Cl)cc3)C(=O)O)CCCCC2)c1 [Example 57] |
| ≤ 800 | 80 to 500 | O=C(NC1(C(=O)N[C@@H](Cc2ccc(NC(=O)c3c(Cl)cccc3Cl)cc2)C(=O)O)CCCCC1)c1cccnc1 [Example 61] |
| ≤ 800 | 80 to 500 | O=C(O)c1ccc(C(=O)NC2(C(=O)N[C@@H](Cc3ccc(NC(=O)c4c(Cl)cccc4Cl)cc3)C(=O)O)CCCCC2)nc1 [Example 63] |
| ≤ 800 | 80 to 500 | O=C(Nc1ccc(C[C@H](NC(=O)C2(NC(=O)C3NC(C(=O)O)CS3)CCCCC2)C(=O)O)cc1)c1c(Cl)cccc1Cl (stereo partly drawn) [Example 66] |
| ≤ 800 | 80 to 500 | O=C(NC1(C(=O)N[C@@H](Cc2ccc(NC(=O)c3c(Cl)cccc3Cl)cc2)C(=O)O)CCCCC1)c1ccc([N+](=O)[O-])o1 [Example 67] |
| ≤ 800 | 80 to 500 | O=C(Nc1ccc(C[C@H](NC(=O)C2(NC(=O)C3CCCO3)CCCCC2)C(=O)O)cc1)c1c(Cl)cccc1Cl (stereo partly drawn) [Example 68] |
| ≤ 800 | 80 to 500 | O=C(Nc1ccc(C[C@H](NC(=O)C2(NC(=O)C3CCOC3)CCCCC2)C(=O)O)cc1)c1c(Cl)cccc1Cl (stereo partly drawn) [Example 69] |
| ≤ 800 | 80 to 500 | O=C(O)c1ccc(C(=O)NC2(C(=O)N[C@@H](Cc3ccc(NC(=O)c4c(Cl)cccc4Cl)cc3)C(=O)O)CC3CCC2C3)nc1 (stereo partly drawn) [Example 72] |
| ≤ 800 | 80 to 500 | O=C(Nc1ccc(C[C@H](NC(=O)C2(NC(=O)C3NC(C(=O)O)CS3)CC3CCC2C3)C(=O)O)cc1)c1c(Cl)cccc1Cl (stereo partly drawn) [Example 75] |
| ≤ 800 | 80 to 500 | O=C(Nc1ccc(C[C@H](NC(=O)C2(NC(=O)C3CCCO3)CC3CCC2C3)C(=O)O)cc1)c1c(Cl)cccc1Cl (stereo partly drawn) [Example 77] |
| ≤ 800 | 80 to 500 | O=C(Nc1ccc(C[C@H](NC(=O)C2(NC(=O)C3CCOC3)CC3CCC2C3)C(=O)O)cc1)c1c(Cl)cccc1Cl (stereo partly drawn) [Example 78] |
